Earlier results as cited in paper PMC5161541 (Nuclear medicine and biology, 2016).

Assays:
σ2 receptors = biological target: T1, σ2 receptors (Mus musculus, UniProt Q8VD00); details: read-out: Sigma-2, Ki; cited from earlier work
T1 sequence (Q8VD00 1-176): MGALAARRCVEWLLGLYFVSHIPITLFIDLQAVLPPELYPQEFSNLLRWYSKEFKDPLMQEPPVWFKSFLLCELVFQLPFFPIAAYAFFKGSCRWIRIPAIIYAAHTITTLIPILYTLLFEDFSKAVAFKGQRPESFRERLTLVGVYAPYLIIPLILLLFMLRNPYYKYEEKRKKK

σ1 receptors = σ1 receptors (Mus musculus, UniProt O55242); details: cited from earlier work
Chain of σ1 receptors (O55242 whole entry): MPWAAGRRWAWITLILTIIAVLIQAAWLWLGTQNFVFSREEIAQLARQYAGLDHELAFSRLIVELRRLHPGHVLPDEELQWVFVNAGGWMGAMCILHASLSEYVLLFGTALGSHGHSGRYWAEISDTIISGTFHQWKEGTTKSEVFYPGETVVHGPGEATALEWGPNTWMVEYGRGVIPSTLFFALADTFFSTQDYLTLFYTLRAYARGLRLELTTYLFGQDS

[1] = test system: (−)-cocaine induced locomotor hyperactivity; details: cited from earlier work

Compound: COc1ccc(CCN2CCN(C/C=C/I)CC2)cc1OC [E-IA-DM-PE-PIPZE, (E)-1-(2-(2,3-dimethoxy-5-yl)ethyl)-4-(iodoallyl)piperazine]
- Ki (σ2 receptors): 1450 ± 220 nM
- Selectivity: σ2/σ1 (σ1 receptors): 216
- Ki (σ1 receptors; read-out: Sigma-1, Ki): 6.7 ± 0.9 nM
- effect on (−)-cocaine induced locomotor hyperactivity [1]: partially attenuates
